Results: patent publication US8759482B2, “Kinetically efficient substrate for lipoic acid ligase” (Massachusetts Institute of Technology, priority 2009, dated 2014)

Experiments:
[1] = biological target: Lp1AW37A (Escherichia coli, UniProt P32099, W38A); details: HEK cells, Lp1AW37A and 11-Br 5 min, QD605-HaloTag 5 min
Method: QD605 emission is shown in the top row. Merged GFP and DIC (differential interference contrast) images are shown in the bottom row. Negative controls are shown with ATP or Lp1A omitted. Scale bars, 10 μm.
HEK 293T cells were transfected with LAP2-GFP-LDLR plasmid using Lipofectamine 2000. After 24 h in growth media (Dulbecco's Modified Eagle Medium (DMEM) with 10% fetal bovine serum (FBS)) at 37° C., enzymatic ligation of 11-Br was performed in DPBS containing 10 μM Lp1A(W37A), 500 μM 11-Br, 1 mM ATP, 5 mM Mg(OAc)2 and 1% (w/v) BSA (Fraction V, EMD) as a blocking agent for 5 min at room temperature. Cells were then rinsed three times with DPBS followed by treatment with 50 nM HaloTag-QD60531 in DPBS containing 1% BSA for 5 min at room temperature. After another three rinses with DPBS, cells were imaged in the same buffer on a Zeiss Axio Observer.Z1 inverted epifluorescence microscope using a 40X oil-immersion lens. […] Fluorescence images were normalized to the same intensity ranges.

[2] = biological target: T1, Lp1A (Escherichia coli, UniProt P32099); details: Azide 7 probe; cited from earlier work
[3] = biological target: T2, Escherichia coli lipoic acid ligase (Lp1A) (Escherichia coli, UniProt P32099); test: Lp1A-catalyzed lipoylation kinetics (kcat, Km) by HPLC; format: biochemical; details: estimated, based on HPLC measurements
T2 sequence (P32099 1-338): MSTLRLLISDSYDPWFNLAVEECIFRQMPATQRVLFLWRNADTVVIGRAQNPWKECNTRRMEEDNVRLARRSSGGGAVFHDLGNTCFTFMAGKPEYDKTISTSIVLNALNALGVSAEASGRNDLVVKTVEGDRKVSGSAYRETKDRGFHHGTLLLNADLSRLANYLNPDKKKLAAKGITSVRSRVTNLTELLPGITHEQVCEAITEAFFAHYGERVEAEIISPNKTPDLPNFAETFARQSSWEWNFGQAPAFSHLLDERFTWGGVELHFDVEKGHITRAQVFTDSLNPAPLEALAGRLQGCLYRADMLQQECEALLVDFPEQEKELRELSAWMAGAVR
Method: Various concentrations of synthetic LAP2 peptide (not a fusion protein) were lipoylated with 50 nM Lp1A, 750 μM lipoic acid, and 3 mM ATP, and initial reaction rates were measured by HPLC. […] Measurements were performed in triplicate.
Using HPLC to quantify product formation, the kcat and Km values were measured for Lp1A-catalyzed lipoylation of a synthetic LAP2 peptide (without an attached fusion protein).
To measure the kcat and Km values for lipoylation, 50 nM Lp1A was combined with 750 μM lipoic acid, 2 mM ATP, and 5 mM magnesium acetate in DPBS. Varying concentrations of LAP2 (5.5, 11, 22, 44, 88, 176, or 352 μM) were used; 60 μL aliquots were removed from the 30° C. reactions at 5 min intervals, up to 20 min, and quenched with 180 mM EDTA (final concentration). HPLC was used to determine the amount of product in each aliquot, and kinetic parameters were extracted using the Michaelis-Menten equation as described previously.^13,28

[4] = biological target: T1, Lp1A; test: Cell surface lipoylation of CFP-TM fusion constructs on mammalian cells; format: cell-based; details: HEK cells, CFP-TM fusions, 1 μM Lp1A, 10 min
Method: FIG. 8 depicts cell surface lipoylation of LAP4.3 vs. LAP4.3D. HeLa cells expressing either LAP4.3-CFP-TM or LAP4.3D-CFP-TM were lipoylated with 1 μM Lp1A for 10 minutes. Lipoylation was detected with Alexa568-conjugated anti-lipoic acid antibody.
However, expression levels of intracellular proteins are similar, whether fused to a LAP sequence or E2p. […] Scale bar, 10 μm. […] Single cell mean fluorescein/CFP intensity ratios were tabulated for >160 cells from >18 fields of view.
Second, the LAPs were compared in a cell surface lipoylation assay (FIG. 9). CFP-TM fusion constructs were expressed in human embryonic kidney 293 (HEK) cells, and lipoylation was carried out by purified Lp1A enzyme added to the media. After 10 min of labeling, lipoylated cell surface proteins were imaged using antilipoic acid antibody. […] To quantitatively compare the labeling efficiencies of all the LAP sequences, lipoylation signal (as measured by antibody staining intensity) was plotted against CFP signal for single cells.

Chain of Lp1AW37A (P32099 whole entry W38A): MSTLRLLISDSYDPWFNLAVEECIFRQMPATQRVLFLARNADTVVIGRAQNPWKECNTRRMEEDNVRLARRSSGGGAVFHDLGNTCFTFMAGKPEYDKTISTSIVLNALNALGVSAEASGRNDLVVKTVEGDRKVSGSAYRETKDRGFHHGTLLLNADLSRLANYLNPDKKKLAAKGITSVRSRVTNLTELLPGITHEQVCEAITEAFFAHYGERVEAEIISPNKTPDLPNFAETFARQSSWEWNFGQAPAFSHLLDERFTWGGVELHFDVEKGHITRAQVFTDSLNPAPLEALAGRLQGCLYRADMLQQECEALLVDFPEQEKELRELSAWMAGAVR

DEVLVEIETDKAVLEVPGGEEE [LAP1]
QD605 labeling at the cell surface [1]: undetectable
kcat for Azide 7 ligation [2]: 0.048 s⁻¹
Km [3]: > 200 µM
cell surface lipoylation (antilipoic acid antibody imaging) [4]: labeling was not detected
